Tested on: PER1 gene expression in skin cells
Assay: PER1 gene expression in skin cells
Assay type: cell-based
Description: A specific example includes a botanical extract from Echinacea purpurea sold by Symrise under the brand name Symfinity™ 1298 which is an extract of Echinacea purpurea which is standardized during the extraction process to contain about 3% by weight of the total extract composition of cichoric acid. Echinacea extracts from different sources will vary in cichoric acid content, and as such will yield variable results in induction of PER1 gene expression. […] Moreover, each species of Echinacea will differ in content of phenolic and cichoric acids. Ethanolic extract of the roots of Echinacea purpura will provide more cichoric acid than ethanolic extracts of Echineacea angustifolia or Echinacea pallida. The content of active ingredients in any extract is also very dependent on the method of extraction. For example, it is known that in many cases enzymatic browning during the extraction process will reduce the phenolic acid content of the resulting extract.

O=C(/C=C/c1ccc(O)c(O)c1)O[C@@H](C(=O)O)[C@@H](O)C(=O)O [caftaric acid]
PER1 gene expression: does not increase

Reference: US10383815B2, “Method and compositions for improving selective catabolysis in cells of keratin surfaces” (ELC Management LLC, priority 2012, dated 2019)
